Data published in ChEMBL document CHEMBL1201862, “PubChem BioAssay data set” (2004).
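1) Cells in 96-well plates. 2) Compound, 48 h, 5 concentrations. 3) Linear interpolation between surrounding doses. 4) Unreached endpoint = highest concentration. GI50 marks 50% less growth.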 Activity calls are given as the source filed them. No stated cut-off is given here; in the data, active = GI50 up to about 1.1 µM and inactive = higher.

Experiments:
Assay in all cases: inhibition of tumour cell growth, NCI panel, 48 h
HOP-92 = test system: HOP-92
A549 = test system: A549
M19-MEL = test system: M19-MEL
OVCAR-8 = test system: OVCAR-8
SF-295 = test system: SF-295
SW-620 = test system: SW-620
SR = test system: SR
UACC-62 = test system: UACC-62
786-0 = test system: 786-0
SK-MEL-28 = test system: SK-MEL-28
MOLT-4 = test system: MOLT-4
HCT-116 = test system: HCT-116
LOX IMVI = test system: LOX IMVI
NCI-H460 = test system: NCI-H460
SNB-19 = test system: SNB-19
SK-MEL-5 = test system: SK-MEL-5
SN12C = test system: SN12C
RPMI-8226 = test system: RPMI-8226
M14 = test system: M14
OVCAR-4 = test system: OVCAR-4
SNB-75 = test system: SNB-75
ACHN = test system: ACHN
HT-29 = test system: HT-29
Malme-3M = test system: Malme-3M
DLD-1 = test system: DLD-1
HCC 2998 = test system: HCC 2998
HCT-15 = test system: HCT-15
K562 = test system: K562
KM-20L2 = test system: KM-20L2
KM12 = test system: KM12
SF-268 = test system: SF-268
XF498 = test system: XF498
SF-539 = test system: SF-539
TK-10 = test system: TK-10
IGROV-1 = test system: IGROV-1
SK-MEL-2 = test system: SK-MEL-2
NCI-H226 = test system: NCI-H226
HL-60 = test system: HL-60
HOP-62 = test system: HOP-62
CAKI-1 = test system: CAKI-1
SK-OV-3 = test system: SK-OV-3
OVCAR-5 = test system: OVCAR-5
SNB-78 = test system: SNB-78
U-251 = test system: U-251
CCRF-CEM = test system: CCRF-CEM
RXF 631 = test system: RXF 631
NCI-H23 = test system: NCI-H23
LXFL 529 = test system: LXFL 529
EKVX = test system: EKVX
UACC-257 = test system: UACC-257
DMS-273 = test system: DMS-273
HOP-18 = test system: HOP-18
UO-31 = test system: UO-31
NCI-H522 = test system: NCI-H522
RXF 393 = test system: RXF 393
A498 = test system: A498
DMS-114 = test system: DMS-114
MCF7 = test system: MCF7
MDA-MB-435 = test system: MDA-MB-435
MDA-MB-231 = test system: MDA-MB-231
T47D = test system: T47D
MDA-N = test system: MDA-N
NCI/ADR-RES = test system: NCI/ADR-RES
PC-3 = test system: PC-3
Hs-578T = test system: Hs-578T
DU-145 = test system: DU-145
BT-549 = test system: BT-549
COLO 205 = test system: COLO 205
OVCAR-3 = test system: OVCAR-3

Measured: GI50

CN(C)c1n/c(=N/c2cccc(Cl)c2)ss1
active: RPMI-8226 0.951 µM | CCRF-CEM 0.0405 µM
14.5 µM: HCT-15
inactive: HOP-92 28.1 µM | A549 22.7 µM | M19-MEL 17.1 µM | OVCAR-8 12.9 µM | SF-295 24.1 µM | SW-620 5.52 µM | SR 4.12 µM | UACC-62 10.8 µM | 786-0 12.9 µM | SK-MEL-28 12.1 µM | MOLT-4 3.03 µM | HCT-116 11.9 µM | LOX IMVI 14.5 µM | NCI-H460 9.2 µM | SNB-19 35.9 µM | SK-MEL-5 27.5 µM | SN12C 12.8 µM | M14 14.6 µM | OVCAR-4 14.6 µM | SNB-75 31 µM | ACHN 18.4 µM | HT-29 18.8 µM | Malme-3M 14.1 µM | DLD-1 12.1 µM | HCC 2998 20.4 µM | K562 9.08 µM | KM-20L2 17.4 µM | KM12 17.5 µM | SF-268 13.6 µM | XF498 16.7 µM | SF-539 18.7 µM | TK-10 55.2 µM | IGROV-1 20.3 µM | SK-MEL-2 16.9 µM | NCI-H226 34.7 µM | HL-60 3.74 µM | HOP-62 68.5 µM | CAKI-1 19.1 µM | SK-OV-3 68.9 µM | OVCAR-5 35 µM | SNB-78 18.1 µM | U-251 11.8 µM | RXF 631 13.5 µM | NCI-H23 12.9 µM | LXFL 529 7.14 µM | EKVX 23.7 µM | UACC-257 15.6 µM | DMS-273 13 µM | HOP-18 > 100 µM | UO-31 38.4 µM | NCI-H522 1.16 µM | RXF 393 16.7 µM | A498 28.1 µM | DMS-114 11.2 µM

CO[C@H]1C[C@](C)(O)Cc2cc3c(c(O)c21)C(=O)c1c(O)cc2c(c1C3=O)O[C@@H]1O[C@@]2(C)[C@H](O)[C@@H](N(C)C)[C@@H]1O
active: HOP-92 0.362 µM | A549 0.0908 µM | M19-MEL 1.11 µM | OVCAR-8 0.9 µM | SF-295 0.284 µM | SW-620 0.55 µM | SR 0.0282 µM | MCF7 0.103 µM | UACC-62 0.738 µM | 786-0 0.524 µM | HCT-116 0.652 µM | NCI-H460 0.0295 µM | SNB-19 0.434 µM | SN12C 0.499 µM | SNB-75 0.653 µM | ACHN 0.279 µM | Malme-3M 1.09 µM | T47D 0.818 µM | XF498 0.147 µM | SF-539 0.851 µM | PC-3 0.661 µM | NCI-H226 0.59 µM | HL-60 0.115 µM | DU-145 0.536 µM | HOP-62 0.181 µM | CAKI-1 0.151 µM | SK-OV-3 0.641 µM | U-251 0.368 µM | CCRF-CEM 0.151 µM | RXF 631 0.902 µM | NCI-H23 0.804 µM | DMS-273 0.215 µM | HOP-18 0.859 µM | NCI-H522 1.04 µM | A498 0.968 µM | DMS-114 0.456 µM
inactive: MDA-MB-435 1.73 µM | SK-MEL-28 5.82 µM | SK-MEL-5 1.16 µM | M14 1.16 µM | OVCAR-4 4.11 µM | HT-29 1.94 µM | MDA-MB-231 1.82 µM | DLD-1 2.81 µM | HCC 2998 2.15 µM | K562 1.12 µM | KM-20L2 2.89 µM | MDA-N 1.85 µM | KM12 1.76 µM | SF-268 1.22 µM | NCI/ADR-RES 10 µM | TK-10 6.98 µM | IGROV-1 2.32 µM | SK-MEL-2 2.43 µM | Hs-578T 5.25 µM | BT-549 2.05 µM | COLO 205 1.96 µM | OVCAR-5 3.35 µM | SNB-78 3.87 µM | OVCAR-3 2.38 µM | LXFL 529 1.96 µM | EKVX 3.55 µM | UACC-257 9.73 µM | UO-31 1.74 µM | RXF 393 1.17 µM
1.23 µM: HCT-15
